In series [1] the test system is APTT, PT and TT (blood coagulation and fibrinolysis systems). Nature of the series: Side effects in lower limb DVT patients: APTT, PT, TT and pain.
Procedure: Chlorine dioxide solution was administered to the patients through the contralateral femoral artery puncture (sick side) for 14 consecutive days, a dose of 10 ml/body/day. Before injection, use 2 ml-5 ml lidocaine of 2% to perform infiltration anesthesia at puncture point.
In series [2] the test system is GFAP-positive cells (astrocytes), NeuN-positive cells (immature neurons). Nature of the series: NeuN-positive, GFAP-positive and BrdU-positive/GFAP-positive cells in the SVZ region. It is filed as in vivo, Sprague-Dawley rats. On the procedure: Male Sprague-Dawley rats with the age of 12 weeks and weight of 250^˜280 g were used in the experiment after acclimating for a week.
A middle cerebral artery occlusion model was first established in compliance with the method of Longa E Z et al. (Longa E Z, et al. Reversible middle cerebral artery occlusion without craniectomy in rats. Stroke 20:84-91, 1989). More specifically, 0.36 g/kg of 10% chloral hydrate was administered intraperitoneally to rats which had been fasted for 12 hours (although given free access to water) to anesthetize the rats. Next, a midline incision was made in the neck to expose the right common carotid artery. Then, the internal carotid artery and external carotid artery were separated, the posterior carotid artery, which is a branch of the external carotid artery, and the thyroidea arteria were coagulated and severed, the external carotid artery was ligated at the branch of the lingual artery and maxillary artery, a small puncture was formed in the external carotid artery, 4-0 Nylon suture was passed through the common carotid artery from the puncture, and gradually inserted into the internal carotid artery until there was resistance. The length of the Nylon suture was about 18^˜20 mm from the branch of the common carotid artery. As a result of occluding the middle cerebral artery with Nylon suture, an ischemic state was applied for 2 hours to create a middle cerebral artery occlusion model.
A cerebral ischemia/reperfusion injury model was established by removing the Nylon suture from the middle cerebral artery of the occlusion model and following reperfusion of blood.
The first solution was a mixed solution made of sodium chlorite with the concentration of 7.47% and sodium chloride with the concentration of 1.59% with deionized water; the second solution was made of citric acid with the concentration of 16.7% with deionized water. Same volume of solutions were taken out from different vessels with different volumes and mixed up. Allow the solution to mix for 3-5 minutes and dilute it five times with normal saline, and then filter it with 0.22 μm filter membrane of double-deck. The solution was immediately put into injector. The solution was prepared once being used.
Treatment group (120 rats): A cerebral ischemia/reperfusion injury model was established for the rats already. To administer chlorine dioxide solution everytime that prepared from procedure (3) through carotid artery after the second day the model has established, once a day for total ten days.
On day 5, 6, 12, 13, 19 and 20 after the model established, 50 mg/kg BrdU was injected intraperitoneally into 30 rats in each group. The rats were autopsied on day 7, 14 and 21 after the model established for preparation of frozen brain sections. The presences of NeuN-positive cells by immunochemical stain, glial fibrillory acidic protein (GFAP)-positive cells by immunochemical stain, and BrdU-Positive/GFAP Positive Cells by double-immunofluorescent stain in the SVZ region were analyzed. NeuN is a marker expressed on the immature neurons which are differentiated from neural stem cells. GFAP is a marker expressed on astrocytes which are also differentiated from neural stem cells.
The presence of NeuN-positive cells was analyzed using goat anti-NeuN monoclonal antibody. The presence of GFAP-positive cells was analyzed using goat anti-GFAP polyclonal antibody. The presence of BrdU-positive/GFAP-positive cells was analyzed by double-immunofluorescent stain using a combination of primary antibody of mouse anti-rat BrdU monoclonal antibody and secondary antibody of Rho-labeled rabbit anti-mouse antibody, and a combination of primary antibody of goat anti-GFAP polyclonal antibody and secondary antibody of FITC-labeled rabbit anti-goat antibody.
BRt(%)=(Bt−St)/(Mt−St)×100

In series [3] the test system is chronic and allergic rhinitis. As to the kind of experiment: Chronic and allergic rhinitis patients vs ephedrine nose drops (Example 9). The class given is in vivo, human. The text has this:
The subjects consisted of 30 patients with chronic and allergic rhinitis, and half of them were randomly assigned to treatment group and control group.
The first solution was a mixed solution made of sodium chlorite with the concentration of 7.47% and sodium chloride with the concentration of 1.59% with deionized water; the second solution was made of citric acid with the concentration of 16.7% with deionized water. The solution comprising chlorine dioxide was made by mixing up the two solutions above. To make 50 ml solution for each patient each time and put it into a bottle and stores it in the refrigerator. 2-5 ml of solution for each patient each time was taken out and put into a beaker. The patients would breathe aiming at the cup-mouth for one to two minutes, and then the solution was diluted five to hundred times with normal saline before being put into nasal spray. To spray on each side of nose for three to five times. It was conducted once a day for consecutive 5 to 10 days. Then the administration was stopped, reuse the administration method for recurrence. The course of treatment was three months. The administration for patients in control group: use the ephedrine nose drops three times a day with three drops on each side each time for consecutive seven days. Reuse the administration method for recurrence. The course of treatment was three months.
Evaluation of the effects: The effects can be divided into excellent, effective and ineffective according to symptoms and signs. 1) Excellent: subjective symptoms disappear and positive sign become normal. 2) Effective: subjective symptoms and positive sign decrease obviously. […] Total effective rate(%)=(No. of excellent cases+No. of effective cases)/total cases×100%. Recurrence rate of rhinitis after treatment means the recurrence rate six months after treatment of all the cases. Table 19 is about the treatment of rhinitis.

Setting [4] is: 30 cases per group, three-month course.

Turning to `[O][Cl+][O-]` [chlorine dioxide solution, chlorine dioxide], in series [1] (almost all the patients, day one after administration), the “duration of stabbing pain after injection without anesthetic” value was found to be 30 min. Moreover, in series [1] (before, day 7 and day 14 after administration, lower limb DVT patients, 10 ml/body/day femoral artery puncture), the “APTT, PT and TT, before vs after administration” value is “no significant differences”. Besides, the “side effects by administration” value in series [1] (lower limb DVT patients, 10 ml/body/day femoral artery puncture, 14 days) is listed as “no occurrence of side effects”. For the same compound, the “BRt: GFAP-positive cells in treatment group relative to model group = 100%” value in series [2] (Day 7) was 148.4%; in series [2] (Day 14), 134.3%; in series [2] (Day 21) it was 162.4%. In addition, the “number of GFAP-positive cells in the SVZ (mean±SD)” value in series [2] (Day 7, model group 66.3 ± 21.3, sham 2.5 ± 0.15, diluted solution via carotid artery once a day, ten days) was 97.2 ± 29.3 No. of cells/mm2; in series [2] (Day 14, model group 58.6 ± 16.5, sham 1.39 ± 0.02), 78.2 ± 19.6 No. of cells/mm2; in series [2] (Day 21, model group 27.9 ± 12.4, sham 0) it was 45.3 ± 18.3 No. of cells/mm2. In series [2] (treatment group, data not shown), the “presence of NeuN-positive cells (immature neurons)” value was “confirmed”. Further, in series [2] (treatment group, double-immunofluorescent stain, data not shown), the “presence of BrdU-positive/GFAP-positive cells in the SVZ region” value is on record as “confirmed”. Besides, the “Effective (No. of cases): symptoms and signs decrease obviously” value in series [3] (setting [4]) is 3. Further, in series [3] (setting [4]), the “Effective rate = (excellent + effective)/total cases” value was 97%. Also, in series [3] (setting [4]), the “Ineffective (No. of cases)” value is on record as 1. In series [3] (30 cases per group, three-month course, test: NaClO2 7.47% + citric acid 16.7%, breathed 1-2 min then nasal spray diluted 5-100 times, once a day 5 to 10 days, control three times a day seven days), the “Excellent (No. of cases): symptoms disappear, signs normal” value turned out to be 26. For the same compound, the “No. of Recurrences” value in series [3] (six months after treatment) is 3. This compound also registered a Recurrence rate in series [3] (six months after treatment) of 10%.

Values taken from US20150335678A1, “METHOD OF ACTIVATING STEM CELLS IN AN ANIMAL AND THE USE OF CHLORINE DIOXIDE FOR PREPARING MEDICINES FOR ACTIVATING STEM CELLS IN AN ANIMAL” (priority 2012, published 2015).
